In publication PMC9525908, “α-Crystallin chaperone mimetic drugs inhibit lens γ-crystallin aggregation: Potential role for cataract prevention” (The Journal of Biological Chemistry, 2022):
Residue numbers refer to the chain shown, from its start. Several values for one entry are separate records, joined by “and”; a condition that tells them apart may be missing. Identical values can stand only once. Like-named read-outs stand apart in the source and are kept apart here.

Key:
OPJ-MγS [1] = target: T1, OPJ-MγS (Mus musculus, UniProt O35486, F10S); assay: bis-ANS binding study, OPJ-MγS; conditions: 10 μM protein, 100 μM drug; read-out: Percent inhibition of binding of bis-ANS, OPJ-MγS
T1 construct: made in house; host or cells: E. coli BL21(DE3) pLysS, pET17b vector
T1 sequence (O35486 1-178 F10S): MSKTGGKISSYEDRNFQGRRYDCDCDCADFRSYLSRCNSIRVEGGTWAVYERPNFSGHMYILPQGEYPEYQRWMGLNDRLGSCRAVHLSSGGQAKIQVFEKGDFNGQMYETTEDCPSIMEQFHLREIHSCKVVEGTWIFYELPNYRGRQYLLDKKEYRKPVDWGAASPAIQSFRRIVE
Experimental: (§1) Extrinsic fluorescence spectra were recorded using bis-ANS, a well-known surface hydrophobicity probe. The spectra were recorded between 400 and 600 nm after exciting at 390 nm. The experiment was performed on 10 μM of HγD and MγS in 50 mM K3PO4 buffer with and without our candidate drugs (100 μM). Bis-ANS stock solution was prepared in methanol whose final percentage was maintained below 7 after mixing with proteins ([81]).

[2] = system: γ-crystallins (bovine, HγD and HγS crystallins); assay: Mean aggregation suppression across all γ-crystallins tested; type: biochemical; set-up: concentration or dose not given beside the values; conditions: mean of all experiments in Table 2 (n=9)
Text: (§2) For a review, see the study by Roskamp et al. ([38]). […] For the mechanistic studies below these two compounds together with either drug M, chosen mostly as negative control, or the entire set of six compounds were used for comparison purpose, whereby the words “drug” or “compound” are used interchangeably in the studies later.
Table S 4: List of primers used for making WT -HγD mutants

WT-MγS = target: T2, WT-MγS (Mus musculus, UniProt O35486); assay: bis-ANS binding study, WT-MγS; conditions: read-out: Percent inhibition of binding of bis-ANS, WT-MγS
T2 construct: made in house; host or cells: E. coli BL21(DE3) pLysS, pET17b vector
T2 sequence (O35486 1-178): T1 sequence (O35486 1-178 F10S) with S10F
Experimental: as §1

HγS_N76D = target: T3, HγS_N76D (Homo sapiens, UniProt P22914, N77D); assay: Thermal aggregation (72 °C, 20 min) turbidity assay, HγS_N76D; type: biochemical; conditions: read-out: % Suppression; for inhibition: HγS_N76D, 75 μM protein, 72 °C 20 min
T3 sequence (P22914 1-178 N77D): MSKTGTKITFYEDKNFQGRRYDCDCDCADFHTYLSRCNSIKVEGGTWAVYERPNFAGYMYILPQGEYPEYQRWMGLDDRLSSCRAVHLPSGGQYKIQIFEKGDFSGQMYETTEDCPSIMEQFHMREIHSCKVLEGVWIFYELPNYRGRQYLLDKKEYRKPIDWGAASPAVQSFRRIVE
Text: as §2

OPJ-MγS [3] = target: T1, OPJ-MγS; assay: End-point heat-mediated turbidity assay, OPJ-MγS; type: biochemical; conditions: read-out: Percent Inhibition of heat mediated aggregation, OPJ-MGS
Experimental: Absorbance was measured at 600 nm with a SpectraMax iD5 (Molecular Devices).
Aggregation kinetics assays at 600 nm in the presence of varying concentrations (0, 100, 200, 300, 400, and 500 μM) of our selected drugs were also performed on mutants of HγD (W43R, W42Q, R14C, and R58H) and MγS (F9S) at a concentration of 1 mg/ml in 50 mM K3PO4 buffer (pH 7.2) in a total volume of 100 μl. WT-HγD and WT-MγS crystallin served as controls for their respective mutant versions. […] Absorbance was monitored every 10 min. […] All the experiments were run in duplicates or triplicates.

WT-HγD = target: T4, WT-HγD (Homo sapiens, UniProt P07320); assay: bis-ANS binding study, WT-HγD; conditions: 10 μM protein, 100 μM drug; read-out: Percent inhibition of binding of bis-ANS, WT-HγD
T4 construct: made in house; host or cells: E. coli BL21(DE3) pLysS, pET3d vector
T4 sequence (P07320 1-174): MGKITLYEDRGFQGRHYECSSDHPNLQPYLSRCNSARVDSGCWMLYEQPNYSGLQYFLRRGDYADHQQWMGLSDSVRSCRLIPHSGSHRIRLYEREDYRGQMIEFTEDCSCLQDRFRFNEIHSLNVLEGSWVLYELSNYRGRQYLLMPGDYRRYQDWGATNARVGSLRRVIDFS
Experimental: as §1

OPJ-MγS [4] = target: T1, OPJ-MγS; assay: Dynamic light scattering, OPJ-MγS; type: biochemical; conditions: 400 μM drug; for Suppression of aggregate formation, DLS temperature scan: OPJ-MγS, 30–90 °C; for Percent Mass Peak 1 / Percent Mass Peak 2 / Radius (nm) Peak 1 / Radius (nm) Peak 2: OPJ-MγS 45 μM, 72 °C 20 min
Experimental: Efficacy of our selected drugs in preventing the formation of protein aggregates was measured by DLS. Measurements were performed on a Wyatt DynaPro Nanostar. For DLS temperature scan experiment, pure and filtered protein samples (1 mg/ml in 10 mM sodium phosphate buffer, pH 7.2) with and without drugs (400 μM) were analyzed by DLS over a temperature range of 30 to 90 °C. Multiple scans were run for every data point, and the results represent average of individual scans. DLS spectra were also recorded for the samples at the end point of turbidity assay.

[5] = 500 μM drug, end point of turbidity assay 72 °C 20 min

Row | SMILES | inhibition at 100 µM (OPJ-MγS [1]) | Mean % suppression / inhibition of γ-crystallin aggregation against thermal denaturation [2] | inhibition at 100 µM (WT-MγS; 10 μM protein, 100 μM drug) | inhibition (HγS_N76D) | inhibition at 500 µM (OPJ-MγS [3]; [5]) | inhibition at 100 µM (WT-HγD) | Suppression of aggregate formation, DLS temperature scan (OPJ-MγS [4]) | inhibition at 100 µM (WT-MγS) | inhibition at 125 µM (HγS_N76D) | inhibition at 500 µM (OPJ-MγS [3]) | Percent Mass Peak 1 (OPJ-MγS [4]) | Percent Mass Peak 2 (OPJ-MγS [4]) | Radius (nm) Peak 1 (OPJ-MγS [4]) | Radius (nm) Peak 2 (OPJ-MγS [4])
1 | COC(=O)/C=C/C(C)=C\C=C\C(C)=C\C=C\C=C(C)\C=C\C=C(C)\C=C\C(=O)O [drug B, Bixin] | 11.83 ± 0.00091% | 49% and 48.8% | 11.94 ± 0.0018% | 57% | 77.6 ± 0.21% | 27.86 ± 0.0009% | mild suppressive effects |  |  |  |  |  |  | 
2 | Cc1cc(C(C#N)c2ccc(Cl)cc2)c(Cl)cc1NC(=O)c1cc(I)cc(I)c1O (stereo not shown) [drug C, Closantel] | 20.28 ± 0.00089% | 69% and 68.6% |  |  |  | 43.82 ± 0.0012% | strong suppressive effects | 27.16 ± 0.0011% | 70% | 82 ± 0.49% | 32% | 68% | 21.9 nm | 358.7 nm
3 | CC(C)=CCCC1(C)C=Cc2c(O)c3c(c(CC=C(C)C)c2O1)OC12C(=CC4CC1C(C)(C)OC2(C/C=C(/C)C(=O)O)C4O)C3=O (stereo not shown) [drug D, dihydrogambogic acid] | 7.76 ± 0.00097% | 54% |  |  |  | 34.5 ± 0.0006% | mild suppressive effects | 19.49 ± 0.0018% | 59% | 85.1 ± 0.68% |  |  |  | 
4 | CC(C)=CCC[C@]1(C)C=Cc2c(O)c3c(c(CC=C(C)C)c2O1)O[C@]12C(=C[C@@H]4C[C@H]1C(C)(C)O[C@@]2(C/C=C(/C)C(=O)O)C4=O)C3=O [drug G, Gambogic acid] | 31.62 ± 0.00057% | 64% and 64.2% |  |  |  | 44.64 ± 0.0011% | strong suppressive effects | 40.72 ± 0.0008% | 55% | 91.6 ± 0.09% | 100% |  | 79.3 nm | 
5 | O=C(O)CCCCCCCCCCCC[C@@H]1C=CCC1 [drug M, Chaulmoogric acid] | 3.48 ± 0.001% | 42% and 42.2% | 1.95 ± 0.0017% | 55% | 33.6 ± 2.36% | 4.28 ± 0.0003% | no suppression |  |  |  | 0% | 100% | 53.1 nm | 5594.1 nm
6 | Oc1c(Cl)cc(Cl)c(Cl)c1Cc1c(O)c(Cl)cc(Cl)c1Cl [drug X, Hexachlorophene] | 2.45 ± 0.00075% | 56% and 55.8% |  |  |  | 15.16 ± 0.001% | mild suppressive effects | 10.17 ± 0.0014% | 60% | 60.9 ± 0.8% |  |  |  | 
